Assay [1] concerns nitrotyrosine. The experiment in a line: Nitrotyrosine production after rMCAo, Western blot of cerebral cortex extracts. As to conditions: 5 mg/kg; 68 kDa protein at 24 hours after rMCAo; P<0.05 compared to vehicle. In kind it is in vivo, rat.
The target of assay [2] is recombinant nNOS (Homo sapiens, UniProt P29475). The conditions noted are these: recombinant nNOS and calcium dependent NOS activity in brain homogenates; from Osuka et al., 2001; cited from earlier work.
The test system of assay [3] is permanent MCAo. Kind of assay: Infarct volume by TTC staining after permanent MCAo. The conditions noted are these: 20 mg/kg, maintained by IP injections every 12 h. In kind it is in vivo, rat.
The subject of assay [4] is volume-regulated anion channels (VRACs). The experiment in a line: Blockade of volume-regulated anion channels in vitro.
In assay [5] the test system is reversible MCAo. The experiment in a line: Infarct volume by TTC staining after reversible MCAo (two hours of MCAo, then reperfusion). It counts as in vivo, rat. The conditions noted are these: for Mean volume of the infarct: ±SEM, p<0.05.
In assay [6] the test system is lipid peroxidation. Kind of assay: Lipid peroxidation in rat synaptosomal preparation (TBA-reactive substances). It counts as biochemical. The conditions noted are these: initiated by 2.5 μM Fe2SO4 and 500 μM ascorbic acid; rat synaptosomes.
Method: Lipid peroxides in sedimented synaptosomal membranes were analyzed by 2-thiobarbituric acid (TBA) with the TBA-reactive substances determined spectrophotometrically (Ohkawa et al., 1979). *P<0.05
In assay [7] the test system is EAA release. Kind of assay: Glutamate (EAA) release measured by microdialysis during and after ischemia (rMCAo). In kind it is in vivo, rat. The conditions noted are these: 5 mg/kg i.v. before rMCAO.

These results are taken from US20030032676A1, “Drugs for treatment of cerebral injury and methods of use thereof” (priority 2001, published 2003).

recombinant nNOS, sequence (P29475 whole entry, species assumed): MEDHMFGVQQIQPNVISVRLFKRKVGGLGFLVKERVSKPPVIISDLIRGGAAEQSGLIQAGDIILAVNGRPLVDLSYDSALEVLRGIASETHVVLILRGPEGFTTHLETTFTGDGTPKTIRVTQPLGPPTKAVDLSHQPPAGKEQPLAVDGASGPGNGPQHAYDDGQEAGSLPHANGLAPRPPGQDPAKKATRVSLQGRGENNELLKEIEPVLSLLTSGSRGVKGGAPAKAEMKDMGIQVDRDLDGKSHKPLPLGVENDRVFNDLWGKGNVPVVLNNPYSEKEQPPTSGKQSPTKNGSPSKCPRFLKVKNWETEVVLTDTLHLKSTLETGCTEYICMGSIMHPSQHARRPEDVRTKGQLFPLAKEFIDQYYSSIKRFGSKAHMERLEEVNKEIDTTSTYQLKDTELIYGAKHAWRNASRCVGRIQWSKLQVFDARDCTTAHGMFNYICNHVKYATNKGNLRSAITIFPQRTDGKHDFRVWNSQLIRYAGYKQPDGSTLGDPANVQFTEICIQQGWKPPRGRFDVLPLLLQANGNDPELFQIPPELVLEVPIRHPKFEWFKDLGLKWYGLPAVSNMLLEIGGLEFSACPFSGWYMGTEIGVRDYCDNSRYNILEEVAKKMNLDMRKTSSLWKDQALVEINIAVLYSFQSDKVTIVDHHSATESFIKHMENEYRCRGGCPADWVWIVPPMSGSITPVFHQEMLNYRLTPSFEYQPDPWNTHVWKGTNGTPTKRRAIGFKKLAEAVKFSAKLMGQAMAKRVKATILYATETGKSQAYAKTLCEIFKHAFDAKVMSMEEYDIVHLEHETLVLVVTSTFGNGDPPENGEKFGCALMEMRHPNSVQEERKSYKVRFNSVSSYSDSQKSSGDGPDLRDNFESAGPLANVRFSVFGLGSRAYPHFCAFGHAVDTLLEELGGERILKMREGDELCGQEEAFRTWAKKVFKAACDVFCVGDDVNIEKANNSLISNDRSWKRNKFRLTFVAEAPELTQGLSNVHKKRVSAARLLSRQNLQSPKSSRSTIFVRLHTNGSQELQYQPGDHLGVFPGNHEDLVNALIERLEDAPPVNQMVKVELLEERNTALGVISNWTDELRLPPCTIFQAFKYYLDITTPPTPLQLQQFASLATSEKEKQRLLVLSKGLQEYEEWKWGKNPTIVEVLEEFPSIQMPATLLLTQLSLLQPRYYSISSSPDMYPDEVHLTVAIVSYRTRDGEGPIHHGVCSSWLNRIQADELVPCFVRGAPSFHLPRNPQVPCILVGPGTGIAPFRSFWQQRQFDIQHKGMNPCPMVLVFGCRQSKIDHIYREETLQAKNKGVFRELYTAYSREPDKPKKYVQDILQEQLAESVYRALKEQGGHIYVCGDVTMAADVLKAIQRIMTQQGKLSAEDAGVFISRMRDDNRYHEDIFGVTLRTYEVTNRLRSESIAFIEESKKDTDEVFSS

For `CCC(=C(c1ccccc1)c1ccc(OCCN(C)C)cc1)c1ccccc1` (stereo in doubt) [tamoxifen, (Z)-2-[4-(1,2-diphenyl-1-butenyl)phenoxy]-N,N-dimethylethanamine], in assay [1], the “Nitrotyrosine levels after rMCAo” value is given as “reduces nitrotyrosine levels”. The nNOS activity entry in assay [2] was “inhibits nNOS”. For the same compound, in assay [3], the Infarct volume result was “reduces infarct volumes”. For the same compound, in assay [4], the VRAC blockade entry is reported as “potently blocks VRACs”. In addition, the Infarct size entry in assay [5] (tamoxifen at two and four hours after the infarct, reperfusion) is listed as “essentially identical to the mean for untreated control animals”. Also, the “Mean volume of the infarct” value in assay [5] (tamoxifen given 1 hour after reperfusing after two hours of MCAo, TTC staining 72 h) came to 33±13 mm^3. In addition, the “Mean volume of the infarct” value in assay [5] (tamoxifen pretreatment, TTC staining 72 h after MCAo) was 41±21 mm^3. Further, in assay [6], the Lipid peroxidation result is “inhibits lipid peroxidation”. In addition, in assay [7], the Contralateral glutamate levels entry was “no effect” and the “EAA (glutamate) release during ischemia” value is “reduces EAA release”.
